# What was measured:
# [1] = system: 95 Lla (RNA, riboswitch) GGGAAAAUAGAAUAAAUACUCCACCGGGAGUUAAAUCGUAUGAACGAUUGUUUGCAUUUCAGUAGGUCUGAGAAGAAAUGUAGAUAGUCGUUCUU; experiment: in-line probing; settings: 20 mM Mg2+, 100 mM K+, 50 mM Tris-HCl pH 8.3 (at 23 °C); for apparent KD: ~48 h; for binding: highest tested 10 mM
# [2] = system: 147 Lla (RNA, riboswitch) AAAAUAGAAUAAAUACUCCACCGGGAGUUAAAUCGUAUGAACGAUUGUUUGCAUUUCAGUAGGUCUGAGAAGAAAUGUAGAUAGUCGUUCUUUUUUUAGCUGAGGAGGCGAAAAUGACUUGGCUAUAUCUACUAAUAGCAGGAAUUU; experiment: in vitro transcription termination assay; settings: 1.8 mM NTPs, 37 °C; for EC50: E. coli RNA polymerase, 8 min, co-transcriptional, full-length fraction; for binding: highest tested 10 mM
# [3] = system: GGAM-3 (Bub 59) (RNA, mRNA element) GGGAUCCAUCCGGGGUACCGCUCCCGCAAGUUGAUCGCGCUCGGUACAAGCGCGAAAUC; experiment: in-line probing and in vitro transcription; settings: 20 mM Mg2+, 100 mM K+; initial experiments, data not shown; highest concentration not stated
# [4] = system: GGAM-2 (Cfi 63) (RNA, mRNA element) GGAAUGGUACGGUCGUACCAGAACCGUGCGCGGGACGGCGGACCUGACACCCGGCGCGCAGCG; experiment: in-line probing and in vitro transcription; settings: 20 mM Mg2+, 100 mM K+; initial experiments, data not shown; highest concentration not stated
# [5] = system: GGAM-3 (Bub 73) (RNA, mRNA element) GGGAUCCAUCCGGGGUACCGCUCCCGCAAGUUGAUCGCGCUCGGUACAAGCGCGAAAUCAGGAGCGGUACGCC; experiment: in-line probing and in vitro transcription; settings: 20 mM Mg2+, 100 mM K+; initial experiments, data not shown; highest concentration not stated
# [6] = system: 95 Lla M4 (G62C) (RNA, riboswitch) GGGAAAAUAGAAUAAAUACUCCACCGGGAGUUAAAUCGUAUGAACGAUUGUUUGCAUUUCACUAGGUCUGAGAAGAAAUGUAGAUAGUCGUUCUU; experiment: in-line probing; settings: 20 mM Mg2+, 100 mM K+; 50 mM Tris-HCl pH 8.3 (at 23 °C); up to 10 mM; folding differs from wt
# [7] = system: GGAM-2 (Cfi 80) (RNA, mRNA element) GGUCGCAGGAAUGGUACGGUCGUACCAGAACCGUGCGCGGGACGGCGGACCUGACACCCGGCGCGCAGCGGUCGCCCACC; experiment: in-line probing and in vitro transcription; settings: 20 mM Mg2+, 100 mM K+; initial experiments, data not shown; highest concentration not stated
# [8] = system: GGAM-4 (Msu 98) (RNA, mRNA element) GGGCGACAGCCUCUCCUCGCGAAACUAAGGUCCGCCCGCUAGGCCGGCCGCGCCUCGACGCGCCGGCUCUCGUCAAUCGAACACGCGCGGUACCCAUG; experiment: in-line probing and in vitro transcription; settings: 20 mM Mg2+, 100 mM K+; initial experiments, data not shown; highest concentration not stated
# [9] = system: 95 Lla M1 (G66C) (RNA, riboswitch) GGGAAAAUAGAAUAAAUACUCCACCGGGAGUUAAAUCGUAUGAACGAUUGUUUGCAUUUCAGUAGCUCUGAGAAGAAAUGUAGAUAGUCGUUCUU; experiment: in-line probing; settings: 20 mM Mg2+, 100 mM K+; 50 mM Tris-HCl pH 8.3 (at 23 °C); highest tested 10 mM
# [10] = system: GGAM-5 (Nov 77) (RNA, mRNA element) GGGUGGAUGCGCCGAGAAUAGAGUAGCAGGGUGGUGUCUCCUGCGCCCGUAAGGGUUCUUCCCAGCCACGGCGUCAA; experiment: in-line probing and in vitro transcription; settings: 20 mM Mg2+, 100 mM K+; initial experiments, data not shown; highest concentration not stated
# [11] = system: GGAM-6 (Sru 111) (RNA, mRNA element) GGGUCAAUACUCGUAUCGGACGGCAAGCAAUCGCCUGCUUGCCAGAUAAGGUGUCCAUAGACACUGGAACGGGUUAUUCAGGCCAGAUAAGAUCGCAUUCUUAUCUGGCCU; experiment: in-line probing and in vitro transcription; settings: 20 mM Mg2+, 100 mM K+; initial experiments, data not shown; highest concentration not stated
# [12] = system: 95 Lla M2 (U67A) (RNA, riboswitch) GGGAAAAUAGAAUAAAUACUCCACCGGGAGUUAAAUCGUAUGAACGAUUGUUUGCAUUUCAGUAGGACUGAGAAGAAAUGUAGAUAGUCGUUCUU; experiment: in-line probing; settings: 20 mM Mg2+, 100 mM K+; 50 mM Tris-HCl pH 8.3 (at 23 °C); highest tested 10 mM
# [13] = system: 95 Lla M3 (G72C) (RNA, riboswitch) GGGAAAAUAGAAUAAAUACUCCACCGGGAGUUAAAUCGUAUGAACGAUUGUUUGCAUUUCAGUAGGUCUGACAAGAAAUGUAGAUAGUCGUUCUU; experiment: in-line probing; settings: 20 mM Mg2+, 100 mM K+; 50 mM Tris-HCl pH 8.3 (at 23 °C); highest tested 10 mM
# [14] = system: GGAM-4 (Msu 80) (RNA, mRNA element) GGGAAACUAAGGUCCGCCCGCUAGGCCGGCCGCGCCUCGACGCGCCGGCUCUCGUCAAUCGAACACGCGCGGUACCCAUG; experiment: in-line probing and in vitro transcription; settings: 20 mM Mg2+, 100 mM K+; initial experiments, data not shown; highest concentration not stated
# [15] = system: 92 Rti (RNA, riboswitch) GGGACAAUUGAAGCAUCUGCCGCCGGGUAGACCAAGAACAAAGCAUGUGCGCCCCUAUCGUUAGGCCAUAGAAGAUAGGGGAAAGCGCAUGC; experiment: in-line probing; settings: 20 mM Mg2+, 100 mM K+, 50 mM Tris-HCl pH 8.3 (at 23 °C), ~48 h
structure (smiles),measurement,setting,value
CNC(=N)N,apparent KD,[1]; Figure 5 legend prints ±0.6,4100 ± 500 µM
same,EC50,[2],2700 ± 700 µM
N=C(N)N,binding,[3],no
same,binding,[4],no
same,binding,[5],no
same,binding,[6],weak
same,apparent KD,[1],210 ± 20 µM
same,binding,[7],no
same,binding,[8],no
same,binding,[9],no
same,binding,[10],no
same,EC50,[2],260 ± 30 µM
same,binding,[11],no
same,binding,[12],no
same,binding,[13],no
same,binding,[14],no
same,apparent KD,[15],190 ± 30 µM
N=C(N)NCCC[C@H](N)C(=O)O,binding,[1],no
same,binding,[2],no
N=C(N)NN,apparent KD,[1],7500 ± 800 µM
same,EC50,[2],3800 ± 500 µM
NC(N)=O,binding,[1],no
same,binding,[2],no

# Source: publication PMC7736828 (2020)
